Source: patent US20220007651A1, “BACILLUS THURINGIENSIS STRAINS AND METHODS FOR CONTROLLING PESTS” (priority 2018, published 2022)

B1: Cry1Ia2: Cry toxin, SEQ ID NO: 9, expressed in Escherichia coli BL21, applied as whole broth (protein, listed as Bacillus thuringiensis)
chain: MKLKNQDKHQSFSSNAKVDKISTDSLKNETDIELQNINHEDCLKMSEYENVEPFVSASTIQTGIGIAGKILGTLGVPFAGQVASLYSFILGELWPKGKNQWEIFMEHVEEIINQKISTYARNKALTDLKGLGDALAVYHDSLESWVGNRNNTRARSVVKSQYIALELMFVQKLPSFAVSGEEVPLLPIYAQAANLHLLLLRDASIFGKEWGLSSSEISTFYNRQVERAGDYSDHCVKWYSTGLNNLRGTNAESWVRYNQFRRDMTLMVLDLVALFPSYDTQMYPIKTTAQLTREVYTDAIGTVHPHPSFTSTTWYNNNAPSFSAIEAAVVRNPHLLDFLEQVTIYSLLSRWSNTQYMNMWGGHKLEFRTIGGTLNISTQGSTNTSINPVTLPFTSRDVYRTESLAGLNLFLTQPVNGVPRVDFHWKFVTHPIASDNFYYPGYAGIGTQLQDSENELPPEATGQPNYESYSHRLSHIGLISASHVKALVYSWTHRSADRTNTIEPNSITQIPLVKAFNLSSGAAVVRGPGFTGGDILRRTNTGTFGDIRVNINPPFAQRYRVRIRYASTTDLQFHTSINGKAINQGNFSATMNRGEDLDYKTFRTVGFTTPFSFLDVQSTFTIGAWNFSSGNEVYIDRIEFVPVEVTYEAEYDFEKAQEKVTALFTSTNPRGLKTDVKDYHIDQVSNLVESLSDEFYLDEKRELFEIVKYAKQLHIERNM
B2: Cry2Ab1: Cry toxin, SEQ ID NO: 10, expressed in Escherichia coli BL21, applied as whole broth (protein, listed as Bacillus thuringiensis)
chain: MNSVLNSGRTTICDAYNVAAHDPFSFQHKSLDTVQKEWTEWKKNNHSLYLDPIVGTVASFLLKKVGSLVGKRILSELRNLIFPSGSTNLMQDILRETEKFLNQRLNTDTLARVNAELTGLQANVEEFNRQVDNFLNPNRNAVPLSITSSVNTMQQLFLNRLPQFQMQGYQLLLLPLFAQAANLHLSFIRDVILNADEWGISAATLRTYRDYLKNYTRDYSNYCINTYQSAFKGLNTRLHDMLEFRTYMFLNVFEYVSIWSLFKYQSLLVSSGANLYASGSGPQQTQSFTSQDWPFLYSLFQVNSNYVLNGFSGARLSNTFPNIVGLPGSTTTHALLAARVNYSGGISSGDIGASPFNQNFNCSTFLPPLLTPFVRSWLDSGSDREGVATVTNWQTESFETTLGLRSGAFTARGNSNYFPDYFIRNISGVPLVVRNEDLRRPLHYNEIRNIASPSGTPGGARAYMVSVHNRKNNIHAVHENGSMIHLAPNDYTGFTISPIHATQVNNQTRTFISEKFGNQGDSLRFEQNNTTARYTLRGNGNSYNLYLRVSSIGNSTIRVTINGRVYTATNVNTTTNNDGVNDNGARFSDINIGNVVASSNSDVPLDINVTLNSGTQFDLMNIMLVPTNISPLY

What was measured:
[1] = system: Spodoptera exigua Hübner (beet armyworm); experiment: Insecticidal assay, second instars on 48-well agar substrate plates; type: in vivo
Text: Zwittermicin A was partially purified from a strain derived from Bacillus thuringiensis strain NRRL B-67688. After growing the strain in a soy-based medium, the whole broth was centrifuged and the supernatant removed. The supernatant was passed through a 3 kDa filter to separate the zwittermicin A from larger molecules including any Cry toxins. The Vip3Aa11 protein was produced in the expression strain of Escherichia coli BL21 and applied to insect larvae as the E. coli whole broth culture (WB) at concentrations of 0.1%, 1%, and 10%. Treatment groups included Vip3Aa11 only (“no Zwa”); Vip3Aa11 with zwittermicin A (“1×Zwa); and Vip3Aa11 with concentrated zwittermicin A (“2×Zwa”) containing twice as much zwittermicin. Concentrations of zwittermicin A and Vip3Aa11 were adjusted by adding deionized water to prepare the appropriate dilutions. Control treatments included zwittermicin A (“1×Zwa”) alone, concentrated zwittermicin A alone (“2×Zwa”), untreated control, and a positive control containing 1000 ppm of a commercially available biological control agent active against Lepidoptera.
To evaluate the insecticidal activity of each treatment, second instars of Spodoptera exigua Hυbner (beet armyworm) were grown on 48-well plates containing an agar substrate similar to that described in Marrone et al., (1985), “Improvements in Laboratory Rearing of the Southern Corn Rootworm, Diabrotica undecimpuncta howardi Barber (Coleoptera: Chrysomelidae), on an Artificial Diet and Corn,” J. Econ. Entomol. 78: 290-293. Each treatment was applied to the agar substrate and a second instar was then placed in the well. After several days, insect development and survival were evaluated. Insect development scores were rated according to the following scale: 1=severely stunted; 2=highly stunted, minimal growth; 3=slightly smaller than untreated control; 4=same size as untreated control. […]
The experiment conducted in Example 3 was repeated with Cry1Ab1, Cry1Ia2, or Cry2Ab1 expressed in Escherichia coli BL21 and applied to insect larvae as the E. coli whole broth culture (WB) at concentrations of 0.2%, 4%, 10%, and 50%. The insect mortality score is based on the following scale: 4=0-25% mortality, 3=26-50% mortality, 2=51-79% mortality, 1=80-100% mortality. All percentages are adjusted according to any mortality observed with untreated control Spodoptera exigua Hυbner (beet armyworm) larvae. […] All reported mortality scores are the average of three replicate measurements.
The experiment in Example 3 was also repeated with Cry1Ca1 and Cry1Da1, which were expressed in Escherichia coli BL21 and applied to insect larvae as the E. coli whole broth culture (WB) at various concentrations. Instead of insect mortality rates, LC50, which in this case is the percentage of whole broth needed to cause 50% mortality, without zwittermicin or with various concentrations of zwittermicin, was determined.

[2] = system: Lepidopteran pests; details: Broderick et al., 2000; cited from earlier work
[3] = Cry toxin applied alone, E. coli whole broth 0.2%, 4%, 10%, 50%
[4] = Cry toxin in combination with zwittermicin A (1×Zwa), FIGS. 4A-4C

Row | Molecule | insect mortality [1, 3] | insect mortality [1, 4] | other results
1 | NC(=O)NCC(NC(=O)[C@@H](O)[C@H](O)[C@H](N)C(O)CC(O)C(N)CO)C(N)=O (some centres unmarked) [zwittermicin A] | – | – | insect mortality ([1]; zwittermicin A alone, 1×Zwa): generally had no observable effect on insect mortality; insect mortality ([1]; zwittermicin alone at the concentrations used in the LC50 experiment): generally had no observable effect on insect mortality; effect on insect growth or survival ([1]; zwittermicin alone, 1×Zwa or 2×Zwa): no significant effect on insect growth or survival; insecticidal activity on its own [2]: little or no observable insecticidal activity
2 | Cry1Ab1: Cry toxin expressed in Escherichia coli BL21, applied as whole broth | demonstrated insect mortality at the higher application rates | significant increase in insect mortality | –
3 | Cry1Da1: Cry toxin, SEQ ID NO: 17, expressed in Escherichia coli BL21, applied as whole broth | – | – | ~LC50 ([1]; No Zwa): >10 percentage of whole broth
4 | B1 | little observable effect on insect mortality | significant increase in insect mortality | –
5 | B2 | demonstrated insect mortality at the higher application rates | significant increase in insect mortality | –
